Measured values: patent US20130102562A1, “INHIBITION OF CATHEPSIN K ACTIVITY AND THE TREATMENT AND PREVENTION OF DISEASE” (SYLVAN PHARMACEUTICALS PTY LTD., priority 2006, published 2013)

Legend:
Cathepsin K = target: T1, Cathepsin K (Homo sapiens, UniProt P43235); assay: Cathepsin K bone collagen digests (release of bone collagen, hydroxyproline); format: biochemical; settings: overall conclusion; Cathepsin K mediated release of bone collagen (FIG. 1)
T1 sequence (P43235 115-329): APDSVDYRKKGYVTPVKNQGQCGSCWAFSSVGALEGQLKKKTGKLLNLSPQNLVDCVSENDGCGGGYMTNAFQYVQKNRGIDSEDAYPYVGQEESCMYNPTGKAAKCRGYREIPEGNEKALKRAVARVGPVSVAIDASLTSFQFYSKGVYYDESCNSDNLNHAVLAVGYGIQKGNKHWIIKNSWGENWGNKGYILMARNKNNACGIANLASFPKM
Procedure: Fresh ovine bone was milled in a stainless steel mortar and pestle in liquid nitrogen. The resultant bone powder was defatted, decalcified and freeze-dried before storage at 4° C.
(ii) Cathepsin K Bone Collagen Digests • 2 mg of insoluble bone collagen powder was digested in 100 mM sodium acetate pH 5.5 containing 2.5 mM dithiothreitol and 2.5 mM EDTA with […] Cathepsin K and increasing doses of PPS. • Digestions were incubated at 37° C. for 24 hours and terminated by the addition of 2 μM E84. Residue and supernatant were hydrolysed separately and the hydroxyproline content measured.

RAW 264.7 cells = assay: Multinucleated (OCL) cell count in RAW 264.7 cell cultures ± RANKL; format: cell-based, Murine
Procedure: (iii) RAW 264.7 Cells • Murine macrophage RAW 264.7 cells respond to Receptor Activator NFKB Ligand (RANKL) stimulation to generate bone pit resorptive osteoclasts. • RAW cells were pre-cultured for several days in High-Glucose Dulbecco's Modified Eagles Medium (HG-DMEM) with 10% Fetal Calf Serum […] (0-50 μg/mL). • Cells were incubated at 37° C., 5% CO2 for 4 days. • The number of multinucleated cells present in each was counted by two observers at day 2, 3 and 4. The cells were then harvested for RNA extraction and subsequent RT-PCR.
(iv) H&E Staining • Identical cultures were prepared in petri dishes containing pre-labelled slides and incubated for 4 days, after which slides were carefully rinsed in PBS, immersed in ice-cold acetone and air-dried before freezing. • The slides were then stained with H&E before multinucleated osteoclasts were photographed and counted.

[1] = test system: Cathepsin K gene expression; assay: Cathepsin K gene expression by RAW 264.7 cells ± RANKL (RT-PCR); format: cell-based, Murine
Procedure: (§1) (iii) RAW 264.7 Cells • Murine macrophage RAW 264.7 cells respond to Receptor Activator NFKB Ligand (RANKL) stimulation to generate bone pit resorptive osteoclasts. • RAW cells were pre-cultured for several days in High-Glucose Dulbecco's Modified Eagles Medium (HG-DMEM) with 10% Fetal Calf Serum (FCS). • Cells were seeded at 250,000 cells/mL in HG-DMEM/10% FCS with/without […] RANKL and increasing doses of PPS (0-50 μg/mL). • Cells were incubated at 37° C., 5% CO2 for 4 days. • The number of multinucleated cells present in each was counted by two observers at day 2, 3 and 4. The cells were then harvested for RNA extraction and subsequent RT-PCR.

MMP-9 gene expression = assay: MMP9 gene expression by RAW 264.7 cells ± RANKL (RT-PCR); format: cell-based, Murine
Procedure: as §1

Molecule	Cathepsin K activity (Cathepsin K)	RANKL-induced multinucleated OCL cell formation (RAW 264.7 cells; day 4, 0.5 μg/mL CaXPS vs absence of CaXPS, p<0.05 (FIG. 4B))	RANKL-induced formation of true multinucleated (>4 nuclei/cell) OCL cells (RAW 264.7 cells; day 4, 10 μg/mL CaXPS (FIG. 4B))	RANKL-induced formation of true multinucleated (>4 nuclei/cell) OCL cells (RAW 264.7 cells; day 4, 50 μg/mL CaXPS (FIG. 4B))	number of cells containing 2-3 nuclei as a percentage total cells (RAW 264.7 cells; day 4, 50 μg/mL CaXPS, in the presence of RANKL, p<0.05 (FIG. 4A))	number of cells containing 2-3 nuclei as a percentage total cells (RAW 264.7 cells; day 4, − vs + RANKL, at most concentrations of CaXPS (FIG. 4A))	Cathepsin K gene expression ([1]; day 4, increasing concentrations of CaXPS in the absence of RANKL (FIG. 5A))	Cathepsin K expression ([1]; day 4, presence of RANKL, lowest dose of CaXPS, p<0.05 (FIG. 5A))	MMP-9 gene expression (MMP-9 gene expression; day 4, increasing concentrations of CaXPS in the absence of RANKL (FIG. 5B))	MMP-9 expression (MMP-9 gene expression; day 4, presence of RANKL, 5 μg/mL CaXPS, p<0.05 (FIG. 5B))	development of multinucleated cells (RAW 264.7 cells; RANKL 20 ng/mL added to RAW cells, by day 3, p<0.05 (FIGS. 2 and 3))	expression of Cathepsin K by RAW cells ([1]; RANKL alone vs no RANKL (FIG. 5A))	expression of MMP-9 by RAW cells (MMP-9 gene expression; RANKL alone vs no RANKL (FIG. 5B))
calcium xylopyranose polysulfate [CaXPS]	down regulation	significantly more	inhibited	inhibited	significantly more 2-3 nucleated cells	still significantly increased	no marked effect	significant increase	no marked effect	decrease	–	–	–
RANKL: Receptor Activator NFKB Ligand; stimulates RAW 264.7 cells to generate bone pit resorptive osteoclasts (protein, UniProt O35235 139-316, looked up) Tumor necrosis factor ligand …: FSGAPAMMEGSWLDVAQRGKPEAQPFAHLTINAASIPSGSHKVTLSSWYHDRGWAKISNMTLSNGKLRVNQDGFYYLYANICFRHHETSGSVPTDYLQLMVYVVKTSIKIPSSHNLMKGGSTKNWSGNSEFHFYSINVGGFFKLRAGEEISIQVSNPSLLDPDQDATYFGAFKVQDID	–	–	–	–	–	–	–	–	–	–	significant development of multinucleated cells	increased	increased
